Data published in paper PMC10518255, “A first-in-class pan-lysyl oxidase inhibitor impairs stromal remodeling and enhances gemcitabine response and survival in pancreatic cancer” (Nature Cancer, 2023).

How the values were obtained:
KPC CCs = assay: Cancer cell invasion into CAF-remodeled 3D organotypic matrices; type: cell-based, mouse; conditions: PXS-5120 100 nM
Procedure: (§1) Fig. 3 PXS-5505 inhibition of CAF remodeling in vitro. a, Quantitative PCR with reverse transcription (qRT–PCR) showing in vitro comparison of KPC CAF relative expression of lysyl oxidase family members compared to KPC CCs from the same model (n = 3 biologically independent samples). Comparisons were determined by 2^–∆∆Ct approach. b, Representative images of 3D organotypic matrix contraction assay at days 2, 6 and 12 in the absence (gray) or presence (pink) of PXS-5505 (30 µM). Scale bars, 5 mm. Comparison of measured area of matrices between control and PXS-5505 treatment groups over time (n = 3 technical samples examined over three biologically independent samples). Data are mean ± s.d. c, Concentration of immature divalent DHLNL and mature trivalent Pyr collagen crosslinks determined by LC–MS from control and PXS-5505-treated organotypic matrices at day 12 (n = 3 technical samples examined over two biologically independent samples). Data are mean ± s.d. […] Data are presented as mean ± s.d. […] Comparison of number of CCs invaded per field of view (FOV) as determined by H&E and PanCK staining (nine images taken from three technical samples from each of three biologically independent contracted matrices), normalized to control. Data are mean ± s.d. Scale bars, 100 μm. […] Source data
Following remodeling, 4 × 10^4 KPC CCs were seeded on top of the remodeled matrix in DMEM supplemented with 10% FBS and 1% penicillin–streptomycin and allowed to grow to confluence for 4 days, after which matrices were transferred to an air–liquid interface and CCs allowed to invade into the organotypic matrices for 12 days (Extended Data Fig. 4f). PXS-5505 (30 μM) or PXS-5120 (100 nM) was added to medium at 48-h intervals for the duration. At the end point, matrices were fixed in 10% formalin and processed for histological analysis by H&E and panCK staining. The invasive index was measured in three representative areas per matrix and the number of invaded cells per mm^2 was calculated. No statistical methods were used to predetermine sample sizes but our sample sizes are similar to those reported in previous publications[36],[39].
Extended Data Fig. 4 PXS-5505 inhibits collagen cross-linking by PDAC CAFs in vitro resulting in decreased cancer cell invasion. a. Schematic of organotypic matrix remodeling assay whereby CAFs are embedded into a 3D collagen matrix and growth media supplemented with or without PXS-5505 to inhibit lysyl oxidase family activity b. Chemical structures of lysyl oxidase family catalyzed hydroxyallysine or allysine residues and the subsequent divalent and trivalent bonds that are formed that can be quantified by mass spectrometry. c. Representative images of 3D organotypic matrix contraction by human pancreatic cancer CAFs at days 2, 6 and 12 in the absence (gray) and presence (pink) of PXS-5505 (30 µM). Scale bars = 5 mm. […] Data presented as mean values +/− SD. d. […] Data presented as mean values +/− SD. Relative fold expression of LOXL family members compared to LOX were determined by 2^–∆∆Ct approach. f. […] Comparison of measured area of matrices between control, PXS-5120 and PXS-5505 treatment groups (n = 3) over time. i. […] Representative images of invasion of KPC cancer cells into a contracted organotypic matrix as determined by H&E staining. […]

[1] = system: KPC CAF remodeled 3D collagen matrices; assay: Matrix stiffness by unconfined compression testing of organotypic matrices; type: cell-based, mouse; conditions: PXS-5120 100 nM, day 12
Procedure: as §1, with “data […]” for “data”

DAO = molecular target: T1, DAO (Homo sapiens, UniProt P19801); assay: Substrate turnover by H2O2 release, amplex red coupled fluorometric activity assay (Extended Data Fig. 3a); type: biochemical
T1 sequence (P19801 20-751): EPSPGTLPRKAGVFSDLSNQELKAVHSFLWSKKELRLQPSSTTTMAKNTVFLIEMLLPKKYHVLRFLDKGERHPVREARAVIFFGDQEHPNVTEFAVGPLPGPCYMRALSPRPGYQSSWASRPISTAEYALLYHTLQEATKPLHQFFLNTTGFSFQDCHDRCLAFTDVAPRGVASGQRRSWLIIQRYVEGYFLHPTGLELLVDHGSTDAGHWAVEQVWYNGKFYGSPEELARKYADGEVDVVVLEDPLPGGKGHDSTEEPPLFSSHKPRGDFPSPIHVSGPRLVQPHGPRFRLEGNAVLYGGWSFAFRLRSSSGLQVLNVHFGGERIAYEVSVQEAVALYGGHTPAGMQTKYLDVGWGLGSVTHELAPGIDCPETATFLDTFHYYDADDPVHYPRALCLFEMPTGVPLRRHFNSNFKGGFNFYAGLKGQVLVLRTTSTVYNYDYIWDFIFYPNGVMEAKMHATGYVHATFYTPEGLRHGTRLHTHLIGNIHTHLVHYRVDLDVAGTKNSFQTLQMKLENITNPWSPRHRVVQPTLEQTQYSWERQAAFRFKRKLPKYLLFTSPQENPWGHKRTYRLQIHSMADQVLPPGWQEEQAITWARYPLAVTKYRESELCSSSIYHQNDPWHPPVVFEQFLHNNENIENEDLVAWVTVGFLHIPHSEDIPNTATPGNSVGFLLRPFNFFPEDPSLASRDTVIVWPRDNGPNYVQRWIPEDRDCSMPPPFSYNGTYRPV
From the text: (§2) Specifically, BAPN is oxidized by diamine oxidase (DAO) and semicarbazide-sensitive amine oxidase (SSAO)/vascular adhesion protein 1 (VAP-1) in the vasculature (Extended Data Fig. 3a), which releases hydrogen […] (H2O2) and aldehyde in humans leading to toxicity.
(§3) Data presented as mean values +/− SD. f. […] Data presented as mean values +/− SD. […] Data presented as mean values +/− SD. […] Data presented as mean values +/− SD. Ordinary one-way ANOVA for multiple comparison test performed. Source data

SSAO = molecular target: T2, SSAO (Homo sapiens, UniProt Q16853); assay: as above; type: biochemical
T2 sequence (Q16853 1-763): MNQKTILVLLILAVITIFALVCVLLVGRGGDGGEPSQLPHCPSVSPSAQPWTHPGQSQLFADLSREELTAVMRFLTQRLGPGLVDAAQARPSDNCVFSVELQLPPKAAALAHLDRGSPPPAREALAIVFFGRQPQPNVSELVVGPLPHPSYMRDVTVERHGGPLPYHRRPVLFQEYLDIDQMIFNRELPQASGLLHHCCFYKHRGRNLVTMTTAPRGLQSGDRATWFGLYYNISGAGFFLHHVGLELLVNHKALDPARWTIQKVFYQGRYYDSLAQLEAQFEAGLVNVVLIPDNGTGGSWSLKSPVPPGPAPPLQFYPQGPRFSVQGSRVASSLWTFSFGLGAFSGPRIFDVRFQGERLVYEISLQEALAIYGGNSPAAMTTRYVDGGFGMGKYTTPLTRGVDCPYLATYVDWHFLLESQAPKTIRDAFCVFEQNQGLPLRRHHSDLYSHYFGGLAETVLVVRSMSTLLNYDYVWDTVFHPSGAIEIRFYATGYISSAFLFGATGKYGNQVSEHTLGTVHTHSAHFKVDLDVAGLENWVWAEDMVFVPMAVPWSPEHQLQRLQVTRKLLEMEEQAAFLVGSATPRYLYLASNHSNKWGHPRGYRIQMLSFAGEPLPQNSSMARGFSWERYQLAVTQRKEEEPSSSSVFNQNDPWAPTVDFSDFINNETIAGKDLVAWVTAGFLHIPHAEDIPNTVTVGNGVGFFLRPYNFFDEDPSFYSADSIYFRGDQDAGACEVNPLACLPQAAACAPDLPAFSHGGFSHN
From the text: as §2, §3

[2] = listed as value 30 (unit not given)
[3] = listed as value 60 (unit not given)
[4] = listed as value 300 (unit not given)

In the case of Cc1c(-c2cccc(S(=O)(=O)N(C)C)c2)c2cc(C(=O)O)ccc2n1C/C(F)=C/CN [PXS-5120, reference compound], the CC invasion (KPC CCs) is reported as “does not lead to decreased CC invasion” and the “stiffening of 3D collagen matrices” value [1] is reported as “does not significantly block stiffening”.
In the case of N#CCCN [BAPN, β-aminopropionitrile, reference compound], the “processing as a substrate by DAO” value (DAO) is reported as “oxidized”, the “Turnover by DAO as measured by H2O2 release, mean” value (“Turnover by DAO as measured” for short) (DAO; [2]) is reported as 3.75 and the “Turnover by DAO as measured” value (DAO; [3]) is reported as 4.64. The “Turnover by DAO as measured” value (DAO; [4]) was 5.888, the “processing as a substrate by SSAO/VAP-1” value (SSAO) was “oxidized” and the “Turnover by SSAO as measured by H2O2 release, mean” value (“Turnover by SSAO as measured” below) (SSAO; [2]) was 1.3236. For the same molecule, the “Turnover by SSAO as measured” value (SSAO; [3]) was 1.5791 and the “Turnover by SSAO as measured” value (SSAO; [4]) was 2.4689.
